Assay results taken from patent publication US10947188B2, “Small molecule ferroptosis inducers” (THE TRUSTEES OF COLUMBIA UNIVERSITY IN THE CITY OF NEW YORK, priority 2016, dated 2021).

Test system: BJeLR
Experiment: Modulatory profiling: Alamar Blue viability, lethal compound cotreated with death modulator (EC50, AUC); for AUC, modulator BJ.3MA: reference of the scale not given here; for AUC, modulator BJ.ALLN: reference of the scale not given here; for AUC, modulator BJ.Boc D: reference of the scale not given here; for AUC, modulator BJ.CHX: reference of the scale not given here; for AUC, modulator BJ.Co2+: reference of the scale not given here; for AUC, modulator BJ.DPQ: reference of the scale not given here; for AUC, modulator BJ.Gd3+: reference of the scale not given here; for AUC, modulator BJ.LNAME: reference of the scale not given here; for AUC, modulator BJ.NAD+: reference of the scale not given here; for AUC, modulator BJ.NMMA: reference of the scale not given here; for AUC, modulator BJ.Nec-1: reference of the scale not given here; for AUC, modulator BJ.Pepstatin: reference of the scale not given here; for AUC, modulator BJ.TLCK: reference of the scale not given here
Format: cell-based, human
Set-up: AUC, modulator BJ.Gd3+ / AUC, modulator BJ.LNAME / AUC, modulator BJ.Lmin / AUC, modulator BJ.3MA / AUC, modulator BJ.ALLN / AUC, modulator BJ.Boc D / AUC, modulator BJ.CHX / AUC, modulator BJ.Co2+ / AUC, modulator BJ.Nec-1 / AUC, modulator BJ.Pepstatin / AUC, modulator BJ.TLCK / AUC, modulator BJ.atoc / AUC, modulator BJ.trolox / AUC, modulator BJ.zVAD: unit not given beside the values
Details: BJeLR cells, modulatory profile value (AUC); for AUC, modulator BJ.3MA: lethal compound cotreated with modulator 3MA; for AUC, modulator BJ.ALLN: lethal compound cotreated with modulator ALLN; for AUC, modulator BJ.Boc D: lethal compound cotreated with modulator Boc D; for AUC, modulator BJ.CHX: lethal compound cotreated with modulator CHX; for AUC, modulator BJ.Co2+: lethal compound cotreated with modulator Co2+; for AUC, modulator BJ.DPQ: lethal compound cotreated with modulator DPQ; for AUC, modulator BJ.Gd3+: lethal compound cotreated with modulator Gd3+; for AUC, modulator BJ.LNAME: lethal compound cotreated with modulator LNAME; for AUC, modulator BJ.Lmin/NAD+: lethal compound cotreated with modulator Lmin/NAD+; for AUC, modulator BJ.Lmin: lethal compound cotreated with modulator Lmin; for AUC, modulator BJ.NAD+: lethal compound cotreated with modulator NAD+; for AUC, modulator BJ.NMMA: lethal compound cotreated with modulator NMMA; for AUC, modulator BJ.Nec-1: lethal compound cotreated with modulator Nec-1; for AUC, modulator BJ.Pepstatin: lethal compound cotreated with modulator Pepstatin; for AUC, modulator BJ.TLCK: lethal compound cotreated with modulator TLCK; for AUC, modulator BJ.atoc: lethal compound cotreated with modulator atoc; for AUC, modulator BJ.trolox: lethal compound cotreated with modulator trolox; for AUC, modulator BJ.zVAD: lethal compound cotreated with modulator zVAD

Structure (SMILES)	AUC, modulator BJ.3MA	AUC, modulator BJ.ALLN	AUC, modulator BJ.Boc D	AUC, modulator BJ.CHX	AUC, modulator BJ.Co2+	AUC, modulator BJ.DPQ	AUC, modulator BJ.Gd3+	AUC, modulator BJ.LNAME	AUC, modulator BJ.Lmin/NAD+	AUC, modulator BJ.Lmin	AUC, modulator BJ.NAD+	AUC, modulator BJ.NMMA	AUC, modulator BJ.Nec-1	AUC, modulator BJ.Pepstatin	AUC, modulator BJ.TLCK	AUC, modulator BJ.atoc	AUC, modulator BJ.trolox	AUC, modulator BJ.zVAD
CCCS(=O)(=O)c1nnnn1-c1cccc(OC)c1 [CIL15]	0.02761	−0.06757	−0.05321	0.1287	0.0961	−0.01238	0.02535	−0.02453	−0.01164	−0.0004619	0.01287	−0.03623	0.02391	0.0256	−0.005629	−0.01149	−0.01026	0.01243
C[S+]([O-])c1nc(-c2ccc(Br)cc2)cc(-c2ccccc2)c1C#N (stereo not drawn) [CIL17]	0.07927	−0.07478	−0.03116	−0.0462	−0.04764	0.004679	−0.04	−0.008054	−0.03209	−0.02464	−0.01632	−0.01688	0.02959	0.03912	−0.07864	0.006451	−0.001174	−0.02313
CCCCNc1cc(C)nc(NCc2ccccc2)n1 [CIL18]	0.0654	−0.04507	−0.01841	−0.01582	0.08943	−0.01318	−0.01659	−0.01628	−0.0502	−0.05505	0.00749	−0.02371	0.0226	0.04724	−0.03824	−0.0004228	0.0395	−0.005402
Cc1cccc(-n2ncc(Cl)c(Cl)c2=O)c1 [CIL22]	−0.04329	−0.03232	−0.0406	0.1136	0.07615	0.005752	0.005899	0.0123	0.07278	0.002645	−0.005902	−0.007412	−0.01633	0.02724	−0.01321	0.01015	0.0184	0.03093
COc1nn(-c2ccccc2)c(=O)c(Cl)c1Cl [CIL23]	−0.01613	−0.04561	−0.01959	−0.02303	−0.01594	0.004379	0.03265	−0.02129	0.004125	−0.01617	0.005104	−0.01242	0.03269	−0.001663	−0.007806	0.002315	−0.02152	0.04691
O=c1c(Cl)c(Cl)cnn1-c1ccc(Cl)c(C(F)(F)F)c1 [CIL25]	0.02374	−0.07209	−0.009758	−0.0273	−0.003244	0.001852	0.04216	−0.004428	0.09246	0.01628	0.06106	0.01683	0.03297	−0.00415	−0.05889	0.02909	−0.001029	0.03879
CC1CC2=C(CC1CNCCCN(C)C)C(C)(C)CCC2 (stereo not drawn) [CIL26]	0.05124	−0.0584	−0.05574	−0.001733	0.04871	0.01829	0.004541	−0.03322	0.09111	−0.0139	0.005678	0.006781	−0.03974	0.02268	−0.06133	0.05008	0.03147	−0.003259
Cc1ccc(O)c(/N=C/C=C/c2cccc(Br)c2)c1 [CIL27]	0.0403	−0.06604	−0.08049	0.1399	0.05931	0.0171	−0.02406	−0.04381	0.02365	0.01472	−0.01357	0.009474	−0.05452	0.006509	−0.03065	0.002404	0.0004949	−0.003575
CC(C)=CCCC1=CCC(CNCCCN(C)C)C(C)C1 (stereo not drawn) [CIL28]	0.0433	−0.02065	−0.02549	−0.01119	0.03417	0.009235	−0.07741	−0.04858	−0.02578	−0.053	0.06231	0.000264	0.005737	0.06166	−0.09417	0.05295	0.06039	0.006234
O=C(/C=C/c1cccc(NC(=O)c2cccs2)c1)c1ccccc1 [CIL33]	0.06199	−0.1124	−0.03229	0.1026	0.04311	0.02549	−0.06539	−0.03157	−0.0126	0.01529	0.05051	0.0458	−0.08953	0.07672	−0.1077	0.0414	−0.05339	−0.02675
